pIC50: −log10 of the molar value.
Columns and labels:
Format in all cases: binding
KRAS G12D = target: T1, KRAS G12D (Homo sapiens, UniProt P01116, G12D); experiment: HTRF assay of K-Ras G12D interaction with SOS1 (PPI-HTRF); details: HTRF, 5 nM KRAS G12D; read-out: PPI-HTRF-5 nM KRAS G12D
T1 construct: made in house; host or cells: E. coli, e.g. BL21 (DE3)
From the text: (§1) This assay can be also used to assess a selective inhibition or reduction of signaling output of a mutant Ras protein relative to a wildtype, or relative to a different mutant Ras protein. For example, the equilibrium interaction of wildtype Kras or K-Ras mutant (e.g., wildtype or a mutant thereof including those mentioned in Example 4) with SOS1 (e.g., hSOS1) can be assessed as a proxy or an indication for a subject compound's ability to bind and inhibit Ras protein. HTRF assay detects from (i) a fluorescence resonance energy transfer (FRET) donor (e.g., antiGST-Europium) that is bound to GST-tagged K-Ras mutant to (ii) a FRET acceptor (e.g., anti-6His-XL665) bound to a His-tagged hSOS1.
(§2) The assay buffer can contain ˜5 mM HEPES pH 7.4, ˜150 mM NaCl, ˜1 mM DTT, 0.05% BSA and 0.0025% (v/v) Igepal. A Ras working solution is prepared in an assay buffer containing typically a suitable amount of the protein construct (e.g., GST-tagged K-Ras mutant) and the FRET donor (e.g., antiGST-Eu(K) from Cisbio, France). A SOS1 working solution is prepared in an assay buffer containing suitable amount of the protein construct (e.g., His-hSOS1) and the FRET acceptor (e.g., anti-6His-XL665 from Cisbio, France). A suitable amount of the protein construct will depend on the range of activity or range of IC50 values being detected or under investigation. For detecting IC50 within a range of 500 nM, the protein constructs of the same range of molarity can be utilized. […] A fixed volume of DMSO with or without test compound is transferred into a 384-well plate. Ras working solution is added to all wells of the test plate. SOS1 working solution is added to all wells except for those that are subsequently filled the inhibitor control solution. Upon incubation for about 10 minutes or longer, the fluorescence is measured with a M1000Pro plate reader (Tecan) using HTRF detection (excitation 337 nm, emission 1: 620 nm, emission 2: 665 nm). Compounds are tested in duplicates at different concentrations (for example, 10 μM, 2.5 μM, 0.63 μM, 0.16 μM, 0.04 μM, 0.01 μM test compound). The ratiometric data (i.e., emission 2 divided by emission 1) is used to calculate IC50 values against Ras using GraphPad Prism (GraphPad software). Following this general procedure, samples were tested with or without a subject compound disclosed herein including compounds exemplified in Table 1 to assess their abilities to inhibit a mutant K-Ras relative to another mutant K-Ras or wildtype K-Ras. Signaling output measured in terms of IC50 values can be obtained, a ratio of IC50 against one mutant relative to another mutant can be calculated. For instance, a selective reduction of K-Ras G12D signaling output can be evidenced by a ratio greater than one. In particular, a selective reduction of K-Ras G12D signaling relative to K-Ras WT signaling is evidenced as the ratio of IC50 (against K-Ras WT) to IC50 (against K-Ras G12D) is greater than 1.

KRAS G12S = target: T2, KRAS G12S (Homo sapiens, UniProt P01116, G12S); experiment: HTRF assay of K-Ras G12S interaction with SOS1 (PPI-HTRF); details: 5 nM KRAS G12S, read-out: PPI-HTRF-5 nM KRAS G12S
T2 construct: made in house; host or cells: E. coli, e.g. BL21 (DE3)
From the text: as §1, §2

KRAS WT = target: T3, KRAS WT (Homo sapiens, UniProt P01116); experiment: HTRF assay of wildtype K-Ras interaction with SOS1 (PPI-HTRF); details: HTRF, 5 nM KRAS WT; read-out: PPI-HTRF-5 nM KRAS WT
T3 construct: made in house; host or cells: E. coli, e.g. BL21 (DE3)
From the text: as §1, §2

T2 sequence (P01116 1-188 isoform P01116-2 G12S): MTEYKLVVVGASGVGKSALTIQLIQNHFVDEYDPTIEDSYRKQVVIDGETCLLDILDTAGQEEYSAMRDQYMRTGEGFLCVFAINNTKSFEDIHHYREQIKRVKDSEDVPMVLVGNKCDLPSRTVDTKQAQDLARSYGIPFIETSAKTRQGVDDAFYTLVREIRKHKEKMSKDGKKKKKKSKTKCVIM
T1 sequence (P01116 1-188 isoform P01116-2 G12D): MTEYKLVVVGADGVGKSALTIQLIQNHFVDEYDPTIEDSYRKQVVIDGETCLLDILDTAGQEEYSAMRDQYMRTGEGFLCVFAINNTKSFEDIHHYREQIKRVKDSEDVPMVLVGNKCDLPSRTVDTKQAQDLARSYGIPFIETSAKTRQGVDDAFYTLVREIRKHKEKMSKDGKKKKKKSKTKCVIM
T3 sequence (P01116 1-188 isoform P01116-2): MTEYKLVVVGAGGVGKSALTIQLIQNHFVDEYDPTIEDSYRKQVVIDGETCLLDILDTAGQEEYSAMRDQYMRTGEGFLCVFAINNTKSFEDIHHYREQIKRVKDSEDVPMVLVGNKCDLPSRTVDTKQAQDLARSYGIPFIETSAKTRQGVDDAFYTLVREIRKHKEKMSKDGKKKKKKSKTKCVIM

SMILES	pIC50 (KRAS G12D)	pIC50 (KRAS G12S)	pIC50 (KRAS WT)
CN1CCC[C@H]1COc1nc2c(c(N3CCC4(CCN4C(=O)n4cncn4)C3)n1)CCN(c1cccc3cccc(Cl)c13)C2 (stereo partly drawn) [Compound 245, (6-(7-(8-chloronaphthalen-1-yl)-2-(((S)-1-methylpyrrolidin-2-yl)methoxy)-5,6,7,8-tetrahydropyrido[3,4-d]pyrimidin-4-yl)-1,6-diazaspiro[3.4]octan-1-yl)(1H-1,2,4-triazol-1-yl)methanone]	< 5.30	< 5.30	< 5.30
Cc1cc(N)c(F)c(-c2c(Cl)cc3c(N4CCC5(CCN5C(=O)n5cncn5)C4)nc(OC[C@@]45CCCN4C[C@H](F)C5)nc3c2F)c1C(F)(F)F (stereo partly drawn) [Compound 279, (6-(7-(3-amino-2-fluoro-5-methyl-6-(trifluoromethyl)phenyl)-6-chloro-8-fluoro-2-(((2R,7aS)-2-fluorotetrahydro-1H-pyrrolizin-7a(5H)-yl)methoxy)quinazolin-4-yl)-1,6-diazaspiro[3.4]octan-1-yl)(1H-1,2,4-triazol-1-yl)methanone]	< 5.30	< 5.30	< 5.30
Nc1nc2c(-c3ccc4c(N5CCC6(CCN6)CC5)nc(OC[C@@]56CCCN5C[C@H](F)C6)nc4c3F)ccc(F)c2s1 [Compound 204, 7-fluoro-4-(8-fluoro-2-(((2R,7aS)-2-fluorotetrahydro-1H-pyrrolizin-7a(5H)-yl)methoxy)-4-(1,7-diazaspiro[3.5]nonan-7-yl)quinazolin-7-yl)benzo[d]thiazol-2-amine]	> 5.30	> 5.30	> 5.30
N#Cc1c(N)sc2c(F)ccc(-c3c(Cl)cc4c(N5CC[C@@]6(CCN6)C5)nc(OC[C@@]56CCCN5C[C@H](F)C6)nc4c3F)c12 [Compound 331, 2-amino-4-(6-chloro-8-fluoro-2-(((2R,7aS)-2-fluorotetrahydro-1H-pyrrolizin-7a(5H)-yl)methoxy)-4-((S)-1,6-diazaspiro[3.4]octan-6-yl)quinazolin-7-yl)-7-fluorobenzo[b]thiophene-3-carbonitrile]	> 5.30	> 5.30	> 5.30
Cc1ncn(C(=O)N2CCOCC23CCN(c2nc(OC[C@@]45CCCN4C[C@H](F)C5)nc4c(F)c(-c5ccc(F)c6sc(N)c(C#N)c56)c(Cl)cc24)C3)n1 (stereo partly drawn) [Compound 214, 2-amino-4-(6-chloro-8-fluoro-2-(((2R,7aS)-2-fluorotetrahydro-1H-pyrrolizin-7a(5H)-yl)methoxy)-4-(6-(3-methyl-1H-1,2,4-triazole-1-carbonyl)-9-oxa-2,6-diazaspiro[4.5]decan-2-yl)quinazolin-7-yl)-7-fluorobenzo[b]thiophene-3-carbonitrile]	> 5.30	> 5.30	> 5.30
Nc1nc2c(-c3c(Cl)cc4c(N5CCC6(CC5)CCN6C(=O)n5cncn5)nc(OC[C@@]56CCCN5C[C@H](F)C6)nc4c3F)ccc(F)c2s1 [Compound 269, (7-(7-(2-amino-7-fluorobenzo[d]thiazol-4-yl)-6-chloro-8-fluoro-2-(((2R,7aS)-2-fluorotetrahydro-1H-pyrrolizin-7a(5H)-yl)methoxy)quinazolin-4-yl)-1,7-diazaspiro[3.5]nonan-1-yl)(1H-1,2,4-triazol-1-yl)methanone]	> 5.30	> 5.30	> 5.30

The remaining lines, values ahead:

pIC50 (KRAS G12D)	pIC50 (KRAS G12S)	pIC50 (KRAS WT)	SMILES
> 5.30	> 5.30	> 5.30	CC(C)=C(C#N)C(=O)N1CCC12CCN(c1nc(OC[C@@]34CCCN3C[C@H](F)C4)nc3c(F)c(-c4ccc(F)c5sc(N)c(C#N)c45)c(Cl)cc13)C2 (stereo partly drawn) [Compound 297, 2-amino-4-(6-chloro-4-(1-(2-cyano-3-methylbut-2-enoyl)-1,6-diazaspiro[3.4]octan-6-yl)-8-fluoro-2-(((2R,7aS)-2-fluorotetrahydro-1H-pyrrolizin-7a(5H)-yl)methoxy)quinazolin-7-yl)-7-fluorobenzo[b]thiophene-3-carbonitrile]
> 5.30	> 5.30	> 5.30	N#Cc1c(N)sc2c(F)ccc(-c3c(Cl)cc4c(N5CCC6(COCCN6C(=O)C6CC6(F)F)C5)nc(OC[C@@]56CCCN5C[C@H](F)C6)nc4c3F)c12 (stereo partly drawn) [Compound 258, 2-amino-4-(6-chloro-4-(6-(2,2-difluorocyclopropane-1-carbonyl)-9-oxa-2,6-diazaspiro[4.5]decan-2-yl)-8-fluoro-2-(((2R,7aS)-2-fluorotetrahydro-1H-pyrrolizin-7a(5H)-yl)methoxy)quinazolin-7-yl)-7-fluorobenzo[b]thiophene-3-carbonitrile]
> 5.30	> 5.30	> 5.30	C[C@H]1CN(C(=O)n2cncn2)[C@]12CCN(c1nc(OC[C@@]34CCCN3C[C@H](F)C4)nc3c(F)c(-c4ccc(F)c5sc(N)c(C#N)c45)c(Cl)cc13)C2 [Compound 324, 2-amino-4-(6-chloro-8-fluoro-2-(((2R,7aS)-2-fluorotetrahydro-1H-pyrrolizin-7a(5H)-yl)methoxy)-4-((3S,4R)-3-methyl-1-(1H-1,2,4-triazole-1-carbonyl)-1,6-diazaspiro[3.4]octan-6-yl)quinazolin-7-yl)-7-fluorobenzo[b]thiophene-3-carbonitrile]
> 5.30	> 5.30	> 5.30	N#Cc1c(N)sc2c(F)ccc(-c3c(Cl)cc4c(N5CCC6(CCN6C(=O)CCl)C5)nc(OC[C@@]56CCCN5C[C@H](F)C6)nc4c3F)c12 (stereo partly drawn) [Compound 294, 2-amino-4-(6-chloro-4-(1-(2-chloroacetyl)-1,6-diazaspiro[3.4]octan-6-yl)-8-fluoro-2-(((2R,7aS)-2-fluorotetrahydro-1H-pyrrolizin-7a(5H)-yl)methoxy)quinazolin-7-yl)-7-fluorobenzo[b]thiophene-3-carbonitrile]
> 5.30	> 5.30	> 5.30	N#Cc1c(N)sc2c(F)ccc(-c3c(Cl)cc4c(N5CC[C@@]6(CCN6C(=O)n6cnc(F)n6)C5)nc(OC[C@@]56CCCN5C[C@H](F)C6)nc4c3F)c12 (atropisomer, axis not shown; (aS)) [Compound 281, (R)-2-amino-4-(6-chloro-8-fluoro-4-((R)-1-(3-fluoro-1H-1,2,4-triazole-1-carbonyl)-1,6-diazaspiro[3.4]octan-6-yl)-2-(((2R,7aS)-2-fluorotetrahydro-H-pyrrolizin-7a(5H)-yl)methoxy)quinazolin-7-yl)-7-fluorobenzo[b]thiophene-3-carbonitrile]
> 5.30	> 5.30	> 5.30	Cc1ncn(C(=O)N2CC[C@@]23CCN(c2nc(OC[C@@]45CCCN4C[C@H](F)C5)nc4c(F)c(-c5ccc(F)c6sc(N)c(C#N)c56)c(Cl)cc24)C3)n1 (atropisomer, axis not shown; (aS)) [Compound 338, (R)-2-amino-4-(6-chloro-8-fluoro-2-(((2R,7aS)-2-fluorotetrahydro-1H-pyrrolizin-7a(5H)-yl)methoxy)-4-((R)-1-(3-methyl-1H-1,2,4-triazole-1-carbonyl)-1,6-diazaspiro[3.4]octan-6-yl)quinazolin-7-yl)-7-fluorobenzo[b]thiophene-3-carbonitrile]
